Data as given in paper PMC6408838, “Bioassay-guided isolation and identification of gametocytocidal compounds from Artemisia afra (Asteraceae)” (Malaria Journal, 2019).
Values after ≈ are worked out from the molar mass of the structure shown. Values joined by “and” are separate entries in the source; they are usually repeats but may differ in a detail not shown here. Equal values may be shown once. Read-outs that look alike come from different tables or passages of the source.

Assays:
[1] = tested on: late-stage gametocytes of Plasmodium falciparum (NF54 strain); experiment: pLDH assay, late-stage gametocyte viability; assay type: cell-based; settings: 72 + 72 h pLDH assay; for IC50: Plasmodium falciparum, NF54, 72 h
Protocol: (§1) The chloroquine-sensitive P. falciparum (NF54 strain) was cultured as described by […] et al. […] Gametocytogenesis initiation, induction and gametocyte culturing was done as described by Reader et al.. […] Both methylene blue (MB) and artemisinin (ART) was used as gametocytocidal drug controls and chloroquine for asexual drug control. Assay data were normalized against untreated Plasmodium parasites and HepG2 cell controls. […] Data were analysed on Microsoft Excel and sigmoidal dose-response curves were plotted using GraphPad Prism (v5). […] Statistical analysis was carried out on GraphPad Prism (v5) using unpaired Student-t test with a level of significance of P < 0.05.

[2] = tested on: early-stage gametocytes (> 85% stage II–III) of P. falciparum (NF54 strain); experiment: pLDH assay, early-stage gametocyte viability; assay type: cell-based, Plasmodium falciparum; settings: n = 3; for IC50 value, Early stage gametocytes: 1–2% gametocytaemia; for IC50: Plasmodium falciparum, NF54, 1–2% gametocytaemia
Protocol: as §1

[3] = tested on: intra-erythrocytic asexual P. falciparum (NF54 strain) parasites; experiment: pLDH assay, intra-erythrocytic asexual parasites; assay type: cell-based, Plasmodium falciparum; settings: 1% parasitaemia; for IC50 value, Asexual stages: 72 h, n = 2; for IC50: Plasmodium falciparum, NF54, 72 h, n = 2, read-out: IC50 value, Asexual stages (converted)
Protocol: as §1

HepG2 cells = experiment: LDH leakage cytotoxicity assay; assay type: cell-based; settings: for cytotoxicity (toxicity): HepG2, at 20 µg/ml; for In vitro cytotoxicity range: HepG2, concentrations of 2.5, 5, 10, and 20 µg/ml
Protocol: (§2) Cytotoxicity assays were assessed on the HepG2 cell line (20,000 cells/well) as previously described. […] was as used as cytotoxic positive control. Assay data were normalized against untreated Plasmodium parasites and HepG2 cell controls. […] Data were analysed on Microsoft Excel and sigmoidal dose-response curves were plotted using GraphPad Prism (v5). Unless otherwise stated, all data have been expressed as mean ± SEM (n ≥ 2, carried out in three technical repeats).

[4] = LDH leakage cytotoxicity assay; assay type: cell-based; settings: human, HepG2 cells; HepG2, LDH leakage, positive control, n = 3
Protocol: as §2

[5] = tested on: mature, stage-V gametocytes (> 90% stage V); design: method as in PMID 26749441; settings: > 90% stage V gametocytes; cited from earlier work
[6] = 1–2% gametocytaemia, n = 3, read-out: IC50 value, Late stage gametocytes
[7] = unpaired assays, n = 1, technical triplicate, 10-fold serial dilution, read-out: IC50, late-stage gametocytes (drug controls)

| Structure (SMILES) | IC50 value, Late stage gametocytes ([1]; 1–2% gametocytaemia, n = 3) [µg/mL] | IC50 [1, 6] | IC50 value, Early stage gametocytes [2] [µg/mL] | IC50 [2] [µM] | IC50 value, Asexual stages [3] [µg/mL] | IC50 [3] | cytotoxicity (toxicity) (HepG2 cells) [%] | In vitro cytotoxicity range (HepG2 cells) | IC50 [1, 7] [µM] | further results |
| --- | --- | --- | --- | --- | --- | --- | --- | --- | --- | --- |
| C=C1C(=O)O[C@H]2C1[C@@H](OC(C)=O)CC(=C)[C@]1(O)C=C[C@@](C)(O)[C@H]21 (stereo partly drawn) [Compound 1, 1α,4α-dihydroxybishopsolicepolide] | 2 | 6.3 µM | 5.6 ± 0.2 (≈ 17.5 µM) | 17.5 | 6.0 (≈ 18.7 µM) | < 10 µg/mL and 18.7 µM | < 10 | 0.03–9.47% |  | IC50 value, Late stage gametocytes ([1]; 1–2% gametocytaemia, n = 3, listed as 1α,4α-dihydroxybishopsolicepolide): < 10 µg/mL |
| C=C1C(=O)O[C@H]2[C@H]1[C@@H](OC(C)=O)C[C@@](C)(O)[C@@]13O[C@@H]1[C@@H]1O[C@]1(C)[C@H]23 [Compound 2, yomogiartemin] | 5.3 | < 10 µg/mL and 15.8 µM | 4.4 ± 0.3 (≈ 13.1 µM) | 13.1 | 3.8 ± 1.2 (≈ 11.3 µM) | 11.3 µM | < 10 | 0.40–8.35% |  | IC50 value, Early stage gametocytes ([2]; listed as yomogiartemin): < 10 µg/mL; IC50 value, Asexual stages ([3]; listed as yomogiartemin): < 10 µg/mL |
| CC[C@H]1CN2CCc3cc(OC)c(OC)cc3[C@@H]2C[C@@H]1C[C@H]1NCCc2cc(OC)c(OC)cc21 [Emetine, reference compound] |  |  |  |  |  |  |  |  |  | EC50 [4]: 4.7 µg/mL (≈ 9.78 µM); cytotoxicity (HepG2 cells; HepG2, 100 µM, positive control): > 50% |
| CN(C)c1ccc2nc3ccc(=[N+](C)C)cc-3sc2c1 [Methylene blue, methylene blue, reference compound] |  |  |  |  |  |  |  |  | 0.031 |  |
| C[C@@H]1CC[C@H]2[C@@H](C)C(=O)O[C@@H]3O[C@@]4(C)CC[C@@H]1[C@]32OO4 [artemisinin, reference compound] |  |  |  |  |  |  |  |  | 0.057 | IC50 [5]: > 12.5 µM |
